# Data reported in patent US8431567B2 (Abbott GmbH & Co. KG, priority 2006, dated 2013).
# Target: T1, human vasopressin V1b receptor (Homo sapiens, UniProt P47901)
# T1 construct: expressed in transfected cells; host or cells: CHO-K1 (cell line hV1b_3H2_CHO), membrane preparation
# T1 sequence (P47901 1-424): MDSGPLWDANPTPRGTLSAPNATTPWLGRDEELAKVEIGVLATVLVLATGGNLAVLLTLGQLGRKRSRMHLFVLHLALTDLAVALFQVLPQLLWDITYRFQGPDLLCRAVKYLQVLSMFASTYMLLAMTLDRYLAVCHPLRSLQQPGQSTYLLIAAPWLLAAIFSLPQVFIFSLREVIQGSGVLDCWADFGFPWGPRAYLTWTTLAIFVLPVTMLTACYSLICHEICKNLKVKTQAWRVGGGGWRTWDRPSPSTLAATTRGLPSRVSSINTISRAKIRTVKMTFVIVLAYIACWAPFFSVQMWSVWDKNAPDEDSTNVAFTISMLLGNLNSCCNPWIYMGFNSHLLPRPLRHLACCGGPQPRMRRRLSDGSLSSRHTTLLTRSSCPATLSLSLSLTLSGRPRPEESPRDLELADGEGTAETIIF
# Assay: Vasopressin V1b receptor binding test
# Conditions: membranes of CHO-K1 cells, displacement of 1.5 nM 3H-AVP
# Method: • Vasopressin V1b Receptor Binding Test: • Substances:
# The test substances were dissolved at a concentration of 10^−2 M in DMSO and diluted further in DMSO to 5×10^−4 M to 5×10^−9 M. These DMSO solutions were diluted 1:10 with test buffer. The concentration of substance was again diluted 1:5 in the test preparation.
# The membrane pellet was homogenized and centrifuged again as described, and then taken up in 50 mM Tris-HCl, pH 7.4, homogenized and, frozen in aliquots, stored at −190° C. in liquid nitrogen.
# The incubation buffer was: 50 mM Tris, 10 mM MgCl2, 0.1% BSA, pH 7.4. […] The nonspecific binding was determined with 1 μM AVP (Bachem #H1780). All determinations were performed in triplicate. After incubation (60 minutes at room temperature), the free radioligand was filtered off by vacuum filtration (Skatron cell harvester 7000) on Whatman GF/B glass-fibre filter mats and the filters were transferred to scintillation vessels. Liquid scintillation measurement was performed in a Tricarb instrument, Model 2000 or 2200CA (Packard). Conversion of the measured cpm to dpm was performed with the aid of a standard quench series.
# The binding parameters were calculated by nonlinear regression in SAS.
# For the compounds according to the invention, the affinities for the human vasopressin receptor V1b were measured according to the above test and the affinity constant (Ki) was determined.
row,Compound,Ki [nM]
1,"CCOc1ccc(C)cc1C1(N2CCN(c3ccncc3)CC2)C(=O)N(S(=O)(=O)c2ccc(OC)cc2OC)c2ccc(C#N)cc21 (racemic) [Example 101, (±)-5-Cyano-1-(2,4-dimethoxy-benzenesulphonyl)-3-(2-ethoxy-5-methylphenyl)-3-(4-pyridin-4-yl-piperazin-1-yl)-2,3-dihydro-1H-indol-2-one]",< 50
2,"CCOc1ccc(OC)cc1C1(N2CCN(C3CCN(C)CC3)CC2)C(=O)N(S(=O)(=O)c2ccc(OC)cc2OC)c2ccc(C#N)cc21 (racemic) [Example 102, (±)-5-Cyano-1-(2,4-dimethoxy-benzenesulphonyl)-3-(2-ethoxy-5-methoxyphenyl)-3-[4-(1-methyl-piperidin-4-yl)-piperazin-1-yl]-2,3-dihydro-1H-indol-2-one]",< 50
3,"CCOc1ccc(CC)cc1C1(N2CCN(c3ccnc(C(C)C)c3)CC2)C(=O)N(S(=O)(=O)c2ccc(OC)cc2OC)c2ccc(C#N)cc21 (racemic) [Example 105, (±)-5-Cyano-1-(2,4-dimethoxy-benzenesulphonyl)-3-(2-ethoxy-5-ethyl-phenyl)-3-[4-(2-isopropyl-pyridin-4-yl)-piperazin-1-yl]-2,3-dihydro-1H-indol-2-one]",< 50
4,"CCOc1ccc(CC)cc1C1(N2CCN(c3ccnc(C)c3)CC2)C(=O)N(S(=O)(=O)c2ccc(OC)cc2OC)c2ccc(C#N)cc21 (racemic) [Example 107, (±)-5-Cyano-1-(2,4-dimethoxy-benzenesulphonyl)-3-(2-ethoxy-5-ethyl-phenyl)-3-[4-(2-methyl-pyridin-4-yl)-piperazin-1-yl]-2,3-dihydro-1H-indol-2-one]",< 50
5,"CCOc1ccc(OC)cc1C1(N2CCN(c3ccncc3)CC2)C(=O)N(S(=O)(=O)c2ccc(OC)cc2OC)c2ccc(C#N)cc21 (single isomer, unassigned; (+)) [Example 96, (+)-5-Cyano-1-(2,4-dimethoxy-benzenesulphonyl)-3-(2-ethoxy-5-methoxyphenyl)-3-(4-pyridin-4-yl-piperazin-1-yl)-2,3-dihydro-1H-indol-2-one]",< 50
6,"CCOc1ccc(OC)cc1C1(N2CCN(c3ccnc(C)c3)CC2)C(=O)N(S(=O)(=O)c2ccc(OC)cc2OC)c2ccc(C#N)cc21 (single isomer, unassigned; (+)) [Example 106, (+)-5-Cyano-1-(2,4-dimethoxy-benzenesulphonyl)-3-(2-ethoxy-5-methoxyphenyl)-3-[4-(2-methyl-pyridin-4-yl)-piperazin-1-yl]-2,3-dihydro-1H-indol-2-one]",< 50
7,"CCOc1ccccc1C1(N2CCN(c3cccnc3)CC2)C(=O)N(S(=O)(=O)c2ccc(OC)cc2OC)c2ccc(C#N)cc21 (centres unmarked) [Example 2, 5-Cyano-1-(2,4-dimethoxy-benzenesulphonyl)-3-(2-ethoxyphenyl)-3-(4-pyridin-3-yl-piperazin-1-yl)-2,3-dihydro-1H-indol-2-one]",50 to 500
8,"COc1ccc(S(=O)(=O)N2C(=O)C(c3ccccc3OC)(N3CCN(c4ccncc4)CC3)c3cc(Cl)ccc32)c(OC)c1 (centres unmarked) [Example 3, 5-Chloro-1-(2,4-dimethoxy-benzenesulphonyl)-3-(2-methoxyphenyl)-3-(4-pyridin-4-yl-piperazin-1-yl)-1,3-dihydro-indol-2-one]",< 50
9,"COc1ccccc1C1(N2CCN(c3ccncc3)CC2)C(=O)N(S(=O)(=O)c2ccc(C#N)cc2)c2ccc(Cl)cc21 (centres unmarked) [Example 4, 4-[5-Chloro-3-(2-methoxyphenyl)-2-oxo-3-(4-pyridin-4-yl-piperazin-1-yl)-2,3-dihydro-indole-1-sulphonyl]-benzonitrile]",50 to 500
10,"COc1ccccc1C1(N2CCN(c3ccncc3)CC2)C(=O)N(S(=O)(=O)c2ccccc2OC)c2ccc(Cl)cc21 (centres unmarked) [Example 5, 5-Chloro-1-(2-methoxy-benzenesulphonyl)-3-(2-methoxyphenyl)-3-(4-pyridin-4-yl-piperazin-1-yl)-1,3-dihydro-indol-2-one]",< 50
11,"COc1ccccc1C1(N2CCN(c3ccncc3)CC2)C(=O)N(S(=O)(=O)c2ccc(C)cc2OC)c2ccc(Cl)cc21 (centres unmarked) [Example 6, 5-Chloro-1-(2-methoxy-4-methyl-benzenesulphonyl)-3-(2-methoxyphenyl)-3-(4-pyridin-4-yl-piperazin-1-yl)-1,3-dihydro-indol-2-one]",< 50
12,"CCOc1ccccc1C1(N2CCN(c3ccncc3)CC2)C(=O)N(S(=O)(=O)c2ccc(C#N)cc2)c2ccc(C#N)cc21 (centres unmarked) [Example 7, 5-Cyano-1-(4-cyano-benzenesulphonyl)-3-(2-ethoxyphenyl)-3-(4-pyridin-4-yl-piperazin-1-yl)-2,3-dihydro-1H-indol-2-one]",50 to 500
13,"CCOc1ccccc1C1(N2CCN(c3ccncc3)CC2)C(=O)N(S(=O)(=O)c2ccccc2OC)c2ccc(C#N)cc21 (centres unmarked) [Example 8, 5-Cyano-3-(2-ethoxyphenyl)-1-(2-methoxy-benzenesulphonyl)-3-(4-pyridin-4-yl-piperazin-1-yl)-2,3-dihydro-1H-indol-2-one]",50 to 500
14,"CCOc1ccccc1C1(N2CCN(c3ccncc3)CC2)C(=O)N(S(=O)(=O)c2ccc(C)cc2OC)c2ccc(C#N)cc21 (centres unmarked) [Example 9, 5-Cyano-3-(2-ethoxyphenyl)-1-(2-methoxy-4-methyl-benzenesulphonyl)-3-(4-pyridin-4-yl-piperazin-1-yl)-2,3-dihydro-1 H-indol-2-one]",50 to 500
15,"CCOc1ccccc1C1(N2CCN(c3ccncc3)CC2)C(=O)N(S(=O)(=O)c2ccc(OC)cc2OC)c2ccc(C#N)cc21 (centres unmarked) [Example 10, 5-Cyano-1-(2,4-dimethoxy-benzenesulphonyl)-3-(2-ethoxyphenyl)-3-(4-pyridin-4-yl-piperazin-1-yl)-2,3-dihydro-1H-indol-2-one]",< 50
16,"COc1ccc(S(=O)(=O)N2C(=O)C(c3ccccc3OC)(N3CCN(c4ccncc4)CC3)c3cc(Cl)ccc32)cc1OC (centres unmarked) [Example 12, 5-Chloro-1-(3,4-dimethoxy-benzenesulphonyl)-3-(2-methoxyphenyl)-3-(4-pyridin-4-yl-piperazin-1-yl)-1,3-dihydro-indol-2-one]",50 to 500
17,"CCOc1ccccc1C1(N2CCN(c3ccncc3)CC2)C(=O)N(S(=O)(=O)c2ccccc2)c2ccc(C#N)cc21 (centres unmarked) [Example 14, 5-Cyano-1-benzenesulphonyl-3-(2-ethoxyphenyl)-3-(4-pyridin-4-yl-piperazin-1-yl)-2,3-dihydro-1H-indol-2-one]",50 to 500
18,"CCOc1ccccc1C1(N2CCN(c3ccncc3)CC2)C(=O)N(S(=O)(=O)c2ccc(F)cc2)c2ccc(C#N)cc21 (centres unmarked) [Example 15, 5-Cyano-3-(2-ethoxyphenyl)-1-(4-fluoro-benzenesulphonyl)-3-(4-pyridin-4-yl-piperazin-1-yl)-2,3-dihydro-1H-indol-2-one]",50 to 500
19,"COc1ccccc1C1(N2CCN(c3ccncc3)CC2)C(=O)N(S(=O)(=O)c2ccccc2)c2ccc(Cl)cc21 (centres unmarked) [Example 16, 1-Benzenesulphonyl-5-chloro-3-(2-methoxyphenyl)-3-(4-pyridin-4-yl-piperazin-1-yl)-1,3-dihydro-indol-2-one]",50 to 500
20,"COc1ccccc1C1(N2CCN(c3ccncc3)CC2)C(=O)N(S(=O)(=O)c2ccc(Cl)cc2)c2ccc(Cl)cc21 (centres unmarked) [Example 18, 5-Chloro-1-(4-chloro-benzenesulphonyl)-3-(2-methoxyphenyl)-3-(4-pyridin-4-yl-piperazin-1-yl)-1,3-dihydro-indol-2-one]",50 to 500
21,"COc1ccc(S(=O)(=O)N2C(=O)C(c3ccccc3OC)(N3CC4CN(c5ccncc5)CC4C3)c3cc(Cl)ccc32)c(OC)c1 (centres unmarked) [Example 19, 5-Chloro-1-(2,4-dimethoxy-benzenesulphonyl)-3-(2-methoxyphenyl)-3-(5-pyridin-4-yl-hexahydro-pyrrolo[3,4-c]pyrrol-2-yl)-1,3-dihydro-indol-2-one]",< 50
22,"COc1ccc(S(=O)(=O)N2C(=O)C(c3ccccc3OC)(N3CCN(c4ccncc4)CC3)c3cc(Cl)ccc32)cc1 (centres unmarked) [Example 20, 5-Chloro-1-(4-methoxy-benzenesulphonyl)-3-(2-methoxyphenyl)-3-(4-pyridin-4-yl-piperazin-1-yl)-1,3-dihydro-indol-2-one]",50 to 500
23,"COc1ccc(S(=O)(=O)N2C(=O)C(c3ccccc3OC)(N3C[C@H]4CN(c5ccncc5)C[C@H]43)c3cc(Cl)ccc32)c(OC)c1 (stereo partly drawn) [Example 21, 5-Chloro-1-(2,4-dimethoxy-benzenesulphonyl)-3-(2-methoxyphenyl)-3-((1R,5S)-3-pyridin-4-yl-3,6-diaza-bicyclo[3.2.0]hept-6-yl)-1,3-dihydro-indol-2-one]",< 50
